Data published in patent publication USRE49022E1, “Insecticidal compounds” (SYNGENTA PARTICIPATIONS AG, priority 2013, dated 2022).

How the values were obtained:
Format in all cases: in vivo
[1] = test system: Tetranychus urticae (Two-Spotted Spider Mite); experiment: Tetranychus urticae, bean leaf disc spray test; settings: foliar, 192 h, sprayed bean leaf discs, mite populations of mixed ages, 8 days
Description: Bean leaf discs on agar in 24-well microtiter plates were sprayed with test solutions at an application rate of 200 ppm. After drying, the leaf discs are infested with mite populations of mixed ages. 8 days later, discs were checked for mortality.

[2] = test system: Myzus persicae (Green Peach Aphid); experiment: Myzus persicae, sunflower leaf disc spray test; settings: foliar, 144 h, sprayed sunflower leaf discs, aphid population of mixed ages, mortality after 6 DAT
Description: Sunflower leaf discs were placed on agar in a 24-well microtiter plate and sprayed with test solutions at an application rate of 200 ppm. After drying, the leaf discs were infested with an aphid population of mixed ages. After an incubation period of 6 DAT, samples were checked for mortality.

[3] = test system: Thrips tabaci (Onion Thrips); experiment: Thrips tabaci, sunflower leaf disc spray test; settings: foliar, 168 h, sprayed sunflower leaf discs, mortality after 7 days
[4] = test system: Myzus persicae (Green Peach Aphid); experiment: Myzus persicae, sucrose solution / Parafilm test; settings: 120 h, mixed with sucrose solution under Parafilm, mortality 5 days after infestation
Description: Test compounds were applied by pipette into 24 well plates and mixed with Sucrose solution. Application rate: 12.5 ppm. The plates were closed with a stretched Parafilm. A plastic stencil with 24 holes is placed onto the plate and infested pea seedlings were placed directly on the Parafilm. The infested plate is closed with a gel blotting paper and another plastic stencil and then turned upside down. 5 days after infestation the samples were checked on mortality.

[5] = test system: Spodoptera littoralis (Egyptian Cotton Leaf Worm); experiment: Spodoptera littoralis, agar / lettuce root uptake test; settings: 144 h, mixed with agar, uptake by lettuce roots, mortality 6 days after infestation
Description: Test compounds were applied by pipette into 24 well plates and mixed with agar. Application rate: 12.5 ppm. Lettuce seeds were placed on the agar and the multi well plate is closed by another plate which contains also agar. After 7 days the roots have absorbed the compound and the lettuce has grown into the lid plate. The lettuce leafs were now cut off into the lid plate. Spodoptera eggs were pipetted through a plastic stencil on a humid gel blotting paper and the plate closed with it. The samples are checked for mortality 6 days after infestation.

[6] = test system: Plutella xylostella (Diamond Back Moth); experiment: Plutella xylostella, artificial diet MTP test; settings: 144 h, 200 ppm (concentration in well 18 ppm), L2 larvae, 6 days
Description: 24-well microtiter plate (MTP) with artificial diet was treated with test solutions at an application rate of 200 ppm (concentration in well 18 ppm) by pipetting. After drying, the MTP's were infested with L2 larvae (7-12 per well). After an incubation period of 6 days, samples were checked for larval mortality and growth regulation. The following compound gave at least 80% mortality of Plutella xylostella: 1, 2, 3, 4, 5, 6, 7, 8, 9, 10, 11, 12, 13, 14, 15, 16, 17, 18, 19, 20, 21, 22, 23, 24, 25, 26, 27, 28, 29, 30, 31, 32, 33, 34, 35, 36, 37, 38, 39, 40, 41, 42, 43, 44, 45, 46, 47, 48, 49, 50.

[7] = test system: Diabrotica balteata (Corn Root Worm); experiment: Diabrotica balteata, artificial diet MTP test; settings: 120 h, 200 ppm (concentration in well 18 ppm), L2 larvae, larval mortality after 5 days
Description: A 24-well microtiter plate (MTP) with artificial diet was treated with test solutions at an application rate of 200 ppm (concentration in well 18 ppm) by pipetting. After drying, the MTP's were infested with L2 larvae (6-10 per well). After an incubation period of 5 days, samples were checked for larval mortality The following compound gave at least 80% control of Diabrotica balteata: 1, 2, 3, 4, 5, 6, 7, 8, 9, 10, 11, 12, 13, 14, 15, 16, 17, 18, 19, 20, 21, 22, 23, 24, 25, 26, 27, 28, 29, 30, 31, 32, 33, 34, 35, 36, 37, 38, 39, 40, 41, 42, 43, 44, 45, 46, 47, 48, 49, 50, 51.

[8] = test system: Spodoptera littoralis (Egyptian Cotton Leafworm); experiment: Spodoptera littoralis, cotton leaf disc spray test; settings: foliar, 72 h, sprayed cotton leaf discs, L1 larvae, 3 days after treatment
Description: Cotton leaf discs were placed on agar in a 24-well microtiter plate and sprayed with test solutions at an application rate of 200 ppm. After drying, the leaf discs were infested with 5 L1 larvae. The samples were checked for mortality 3 days after treatment (DAT).

CCN(C(=O)c1ccc(C#N)cc1)c1cccc(C(=O)Nc2c(Cl)cc(C(F)(C(F)(F)F)C(F)(F)Br)cc2Br)c1OC (stereo not shown) [Compound 1, N-[2-bromo-4-[1-[bromo(difluoro)methyl]-1,2,2,2-tetrafluoro-ethyl]-6-chloro-phenyl]-3-[(4-cyanobenzoyl)-ethyl-amino]-2-methoxy-benzamide]
≥ 80%: mortality at 200 ppm [1] | pest or weed control at 200 ppm [2] | pest or weed control at 200 ppm [3] | pest or weed control at 12.5 ppm [4] | pest or weed control at 12.5 ppm [5] | mortality at 200 ppm [6] | pest or weed control at 200 ppm [7] | mortality at 200 ppm [8]

CCN(C(=O)c1ccncc1)c1cccc(C(=O)Nc2c(Cl)cc(C(F)(C(F)(F)F)C(F)(F)Br)cc2Br)c1OC (stereo not shown) [Compound 2, N-[3-[[2-bromo-4-[1-[bromo(difluoro)methyl]-1,2,2,2-tetrafluoro-ethyl]-6-chloro-phenyl]carbamoyl]-2-methoxy-phenyl]-N-ethyl-pyridine-4-carboxamide]
≥ 80%: mortality at 200 ppm [1] | pest or weed control at 200 ppm [2] | pest or weed control at 200 ppm [3] | pest or weed control at 12.5 ppm [4] | pest or weed control at 12.5 ppm [5] | mortality at 200 ppm [6] | pest or weed control at 200 ppm [7] | mortality at 200 ppm [8]

COc1c(NC(=O)c2ccncc2)cccc1C(=O)Nc1c(Cl)cc(C(F)(C(F)(F)F)C(F)(F)Br)cc1Br (stereo not shown) [Compound 3, N-[3-[[2-bromo-4-[1-[bromo(difluoro)methyl]-1,2,2,2-tetrafluoro-ethyl]-6-chloro-phenyl]carbamoyl]-2-methoxy-phenyl]pyridine-4-carboxamide]
≥ 80%: mortality at 200 ppm [1] | pest or weed control at 200 ppm [2] | pest or weed control at 200 ppm [3] | pest or weed control at 12.5 ppm [4] | pest or weed control at 12.5 ppm [5] | mortality at 200 ppm [6] | pest or weed control at 200 ppm [7] | mortality at 200 ppm [8]

CCc1cc(C(F)(C(F)(F)F)C(F)(F)Cl)cc(Br)c1NC(=O)c1cccc(NC(=O)c2cc[n+]([O-])cc2)c1OC (stereo not shown) [Compound 29]
≥ 80%: mortality at 200 ppm [1] | pest or weed control at 200 ppm [2] | pest or weed control at 200 ppm [3] | pest or weed control at 12.5 ppm [4] | mortality at 200 ppm [6] | pest or weed control at 200 ppm [7] | mortality at 200 ppm [8]

CCc1cc(C(F)(C(F)(F)F)C(F)(F)Cl)cc(Br)c1NC(=O)c1cccc(NC(=O)c2ccc[n+]([O-])c2)c1OC (stereo not shown) [Compound 30]
≥ 80%: mortality at 200 ppm [1] | pest or weed control at 200 ppm [2] | pest or weed control at 200 ppm [3] | pest or weed control at 12.5 ppm [4] | mortality at 200 ppm [6] | pest or weed control at 200 ppm [7] | mortality at 200 ppm [8]

CCc1cc(C(F)(C(F)(F)F)C(F)(F)Cl)cc(Br)c1NC(=O)c1cccc(N(CC)C(=O)c2ccc(C#N)cc2)c1F (stereo not shown) [Compound 33]
≥ 80%: mortality at 200 ppm [1] | pest or weed control at 200 ppm [2] | pest or weed control at 200 ppm [3] | pest or weed control at 12.5 ppm [4] | mortality at 200 ppm [6] | pest or weed control at 200 ppm [7] | mortality at 200 ppm [8]

CCc1cc(C(F)(C(F)(F)F)C(F)(F)Cl)cc(Br)c1NC(=O)c1cccc(N(CC)C(=O)c2ccc(C#N)cc2)c1OC (stereo not shown) [Compound 34]
≥ 80%: mortality at 200 ppm [1] | pest or weed control at 200 ppm [2] | pest or weed control at 200 ppm [3] | pest or weed control at 12.5 ppm [4] | mortality at 200 ppm [6] | pest or weed control at 200 ppm [7] | mortality at 200 ppm [8]

CCc1cc(C(F)(C(F)(F)F)C(F)(F)Cl)cc(Br)c1NC(=O)c1cccc(N(CC)C(=O)c2ccncc2)c1F (stereo not shown) [Compound 37]
≥ 80%: mortality at 200 ppm [1] | pest or weed control at 200 ppm [2] | pest or weed control at 200 ppm [3] | pest or weed control at 12.5 ppm [4] | mortality at 200 ppm [6] | pest or weed control at 200 ppm [7] | mortality at 200 ppm [8]

CCc1cc(C(F)(C(F)(F)F)C(F)(F)Cl)cc(Br)c1NC(=O)c1cccc(N(CC)C(=O)c2ccncc2)c1OC (stereo not shown) [Compound 38]
≥ 80%: mortality at 200 ppm [1] | pest or weed control at 200 ppm [2] | pest or weed control at 200 ppm [3] | pest or weed control at 12.5 ppm [4] | mortality at 200 ppm [6] | pest or weed control at 200 ppm [7] | mortality at 200 ppm [8]

CCc1cc(C(F)(C(F)(F)F)C(F)(F)Cl)cc(Br)c1NC(=O)c1cccc(N(CC)C(=O)c2cccnc2)c1OC (stereo not shown) [Compound 42]
≥ 80%: mortality at 200 ppm [1] | pest or weed control at 200 ppm [2] | pest or weed control at 200 ppm [3] | pest or weed control at 12.5 ppm [4] | mortality at 200 ppm [6] | pest or weed control at 200 ppm [7] | mortality at 200 ppm [8]

CCc1cc(C(F)(C(F)(F)F)C(F)(F)Cl)cc(Br)c1NC(=O)c1cccc(N(CC)C(=O)c2cc[n+]([O-])cc2)c1F (stereo not shown) [Compound 45]
≥ 80%: mortality at 200 ppm [1] | pest or weed control at 200 ppm [2] | pest or weed control at 200 ppm [3] | pest or weed control at 12.5 ppm [4] | mortality at 200 ppm [6] | pest or weed control at 200 ppm [7] | mortality at 200 ppm [8]

CCc1cc(C(F)(C(F)(F)F)C(F)(F)Cl)cc(Br)c1NC(=O)c1cccc(N(CC)C(=O)c2cc[n+]([O-])cc2)c1OC (stereo not shown) [Compound 46]
≥ 80%: mortality at 200 ppm [1] | pest or weed control at 200 ppm [2] | pest or weed control at 200 ppm [3] | pest or weed control at 12.5 ppm [4] | mortality at 200 ppm [6] | pest or weed control at 200 ppm [7] | mortality at 200 ppm [8]

CCc1cc(C(F)(C(F)(F)F)C(F)(F)Cl)cc(Br)c1NC(=O)c1cccc(N(CC)C(=O)c2ccc[n+]([O-])c2)c1F (stereo not shown) [Compound 49]
≥ 80%: mortality at 200 ppm [1] | pest or weed control at 200 ppm [2] | pest or weed control at 200 ppm [3] | pest or weed control at 12.5 ppm [4] | mortality at 200 ppm [6] | pest or weed control at 200 ppm [7] | mortality at 200 ppm [8]
